Read-outs that look alike come from different tables or passages of the source.
Legend:
rhesus monkeys = assay: Oral repeated dose toxicity studies in monkeys; assay type: in vivo, rhesus monkey
Method: (§1) Toxicology studies were also conducted in rats and monkeys to assess the potential toxicity of 4-CNAB, alone or in combination with insulin. Based on the 14-day oral repeated dose toxicity studies, the NOAEL (No-Adverse Effect Level) was estimated to be 500 mg/kg in Sprague-Dawley rats, and 400 mg/kg in rhesus monkeys. […] Developmental and reproductive toxicology studies have not yet been conducted.

[1] = Plasma 4-CNAB concentration (Example 1); assay type: in vivo, human; conditions: after start of meal intake; 200 mg or 400 mg 4-CNAB capsules
Method: During each treatment session, blood samples were collected for determination of plasma concentrations of 4-CNAB, insulin and C-peptide, and for blood glucose concentration. Sampling started 1 hour before intake of the test meal and continued until 6 hours thereafter. Blood samples were drawn via a venous cannula and collected related to the start of the test meal at time point 0. The timing of scheduled samples could be adjusted according to clinical needs or needs for pharmacokinetic data. The duration of each session was approximately 8-9 hours. All experiments were performed after an overnight fast of approximately 12 hours.
Blood samples for determination of 4-CNAB plasma concentrations (2 mL in sodium heparin tube) were drawn 10, 20, 30, 40, 60, 90, 120, 240 and 360 minutes after start of meal intake (9 samples per session). Blood samples for determination of insulin and C-peptide plasma concentrations (5 mL in sodium heparin tube) were drawn at −60 and −30 minutes, at time 0 (start of meal intake), and after 10, 20, 30, 40, 50, 60, 75, 90, 105, 120, 150, 180, 210, 240, 300, and 360 minutes (19 samples per session). Plasma concentrations of insulin were determined by a GLP-validated microparticle enzyme immunoassay (MEIA).
Blood samples for the determination of plasma concentrations of insulin, 4-CNAB and C-peptide were collected at defined intervals, as discussed above. […]

receptors = assay: Receptor binding screening assays
Method: Insulin/4-CNAB capsules were evaluated by Emisphere Technologies, Inc. in a nonclinical program that included pharmacological screening, pharmacokinetic and metabolic profiles, and toxicity assessments in rats and monkeys. […] Similarly, for a fixed oral dose of 4-CNAB, insulin absorption increased with increasing doses of insulin.

Genotoxicity studies = conditions: four genotoxicity studies
Method: as §1

[2] = Moisture content / hygroscopicity of 4-CNAB; assay type: physicochemical; conditions: below 75% RH
Sprague-Dawley rats = assay: Oral repeated dose toxicity studies in rats; assay type: in vivo, rat
Method: as §1

[3] = cited from earlier work; for time to peak plasma/serum drug concentration (tmax): fasting or immediately prior to a meal
blood glucose [4] = conditions: oral sulfonylureas; cited from earlier work
blood glucose [5] = conditions: marketed insulin preparations; cited from earlier work
[6] = dosed three times daily before meals

For `O=C([O-])CCCNC(=O)c1ccc(Cl)cc1O.[Na+]` [4-CNAB, sodium N-[4-(4-chloro-2 hydroxybenzoyl)amino]butyrate], the “NOAEL (No-Adverse Effect Level)” value (rhesus monkeys; 14-day oral repeated dose, rhesus monkeys) was 400 mg/kg, the NOAEL (rhesus monkeys; 90-day oral repeated dose, monkeys) was 600 mg/kg and the “plasma 4-CNAB concentration after 2 hours relative to the levels seen after 10 minutes” value [1] was “less than 10%”. For the same compound, the inherent pharmacological activity (receptors) was “no inherent pharmacological activity”, the genotoxicity findings (Genotoxicity studies) was “no positive findings” and the residual moisture content [2] was under 0.5%. For the same compound, the “NOAEL (No-Adverse Effect Level)” value (Sprague-Dawley rats; 14-day oral repeated dose, Sprague-Dawley rats, 4-CNAB alone or in combination with insulin) was 500 mg/kg and the NOAEL (Sprague-Dawley rats; 90-day oral repeated dose, rats) was 250 mg/kg.
In the case of `CCc1ccc(CCOc2ccc(CC3SC(=O)NC3=O)cc2)nc1` (stereo not drawn) [ACTOS® thiazolidinedione, pioglitazone], the “first measurable in serum” value ([3]; oral, fasting state) is listed as at most 30 min and the “time to peak plasma/serum drug concentration (tmax)” value ([3]; oral) is listed as at most 2 h.
In the case of `CN(CCOc1ccc(CC2SC(=O)NC2=O)cc1)c1ccccn1` (stereo not drawn) [AVANDIA® thiazolidinedione, rosiglitazone], the “time to peak concentration with food” value ([3]; food effect) is listed as “about 1.75 hours” and the “time to peak plasma/serum drug concentration (tmax)” value ([3]; oral) is listed as at most 1 h.
For `CC(=O)c1ccc(S(=O)(=O)NC(=O)NC2CCCCC2)cc1` [Acetohexamide], the onset of action (blood glucose [4]) is listed as 1 h.
For `CCCNC(=O)NS(=O)(=O)c1ccc(Cl)cc1` [Chlorpropamide], the duration of action (blood glucose [4]) is given as 72 h and the onset of action (blood glucose [4]) is given as “one”.
In the case of `CCC1=C(C)CN(C(=O)NCCc2ccc(S(=O)(=O)NC(=O)N[C@H]3CC[C@H](C)CC3)cc2)C1=O` [Glimepiride], the duration of action (blood glucose [4]) is listed as 18 to 28 h and the onset of action (blood glucose [4]) is listed as 2 h.
In the case of `Cc1cnc(C(=O)NCCc2ccc(S(=O)(=O)NC(=O)NC3CCCCC3)cc2)cn1` [Glipizide], the duration of action (blood glucose [4]) is listed as 10 to 24 h and the onset of action (blood glucose [4]) is listed as “one”.
In the case of `Cc1ccc(S(=O)(=O)NC(=O)NN2CCCCCC2)cc1` [Tolazamide], the onset of action (blood glucose [4]) is given as 4 to 6 h.
For `COc1ccc(Cl)cc1C(=O)NCCc1ccc(S(=O)(=O)NC(=O)NC2CCCCC2)cc1` [glyburide], the duration of action (blood glucose [4]) is listed as 18 to 24 h and the onset of action (blood glucose [4]) is listed as 1.5 h.
In the case of `CC(C)[C@H]1CC[C@H](C(=O)N[C@H](Cc2ccccc2)C(=O)O)CC1` [nateglinide], the “time to stimulation of pancreatic insulin secretion” value ([3]; after oral administration) is listed as at most 20 min, the “fall of plasma insulin to baseline after dosing” value [3, 6] is listed as at most 4 h and the “time of peak plasma insulin levels after dosing” value [3, 6] is listed as about 1 h. For the same compound, the “time to peak plasma/serum drug concentration (tmax)” value ([3]; oral) was “one”.
In the case of `CCOc1cc(CC(=O)N[C@@H](CC(C)C)c2ccccc2N2CCCCC2)ccc1C(=O)O` [repaglinide], the “decrease in AUC when given with food” value ([3]; food effect) is listed as 12.4%, the “decrease in Cmax when given with food” value ([3]; food effect) is listed as 20% and the “time to peak plasma/serum drug concentration (tmax)” value ([3]; oral) is listed as at most 1 h.
For `CCCCNC(=O)NS(=O)(=O)c1ccc(C)cc1` [tolbutamide], the duration of action (blood glucose [4]) is listed as 6 to 12 h and the onset of action (blood glucose [4]) is listed as 1 h.
In the case of Glargine insulin: long-acting insulin, the duration of activity (blood glucose [5]) is given as 24 h and the “peak time of effect” value (blood glucose [5]) is given as “no peak effect”.
In the case of Lantus®, the duration of activity (blood glucose [5]) is given as “up to 24 hours”.
In the case of Ultralente insulin, the onset of action (blood glucose [5]) is given as 2 to 4 h and the “peak time of effect” value (blood glucose [5]) is given as 8 to 20 h.

Source: US8324156B2, “Oral insulin therapies and protocol” (Emisphere Technologies, Inc., priority 2003, dated 2012)
